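Grown in 96-well plates, cells were treated for 48 hours with each compound at five concentrations. Insufficient inhibition: endpoint recorded as highest concentration tested. TGI is the concentration that stops growth completely.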
How the values were obtained:
Experiment in all cases: DTP human tumour cell line panel, 48 h
UO-31 renal = test system: UO-31 renal
K-562 leukemia = test system: K-562 leukemia
SNB-78 CNS = test system: SNB-78 CNS
HCT-116 colon = test system: HCT-116 colon
RXF 393 renal = test system: RXF 393 renal
786-0 renal = test system: 786-0 renal
SW-620 colon = test system: SW-620 colon
HOP-18 NSCLC = test system: HOP-18 NSCLC
M14 melanoma = test system: M14 melanoma
HL-60(TB) leukemia = test system: HL-60(TB) leukemia
HOP-92 NSCLC = test system: HOP-92 NSCLC
LXFL 529 NSCLC = test system: LXFL 529 NSCLC
IGROV1 ovarian = test system: IGROV1 ovarian
HCC-2998 colon = test system: HCC-2998 colon
M19-MEL melanoma = test system: M19-MEL melanoma
RXF-631 renal = test system: RXF-631 renal
SF-295 CNS = test system: SF-295 CNS
KM20L2 colon = test system: KM20L2 colon
OVCAR-5 ovarian = test system: OVCAR-5 ovarian
UACC-62 melanoma = test system: UACC-62 melanoma
SF-268 CNS = test system: SF-268 CNS
DMS 273 small cell lung = test system: DMS 273 small cell lung
OVCAR-8 ovarian = test system: OVCAR-8 ovarian
SN12C renal = test system: SN12C renal
SK-MEL-2 melanoma = test system: SK-MEL-2 melanoma
NCI-H460 lung = test system: NCI-H460 lung
SNB-19 CNS = test system: SNB-19 CNS
DLD-1 colon = test system: DLD-1 colon
NCI-H226 lung = test system: NCI-H226 lung
CAKI-1 renal = test system: CAKI-1 renal
EKVX NSCLC = test system: EKVX NSCLC
KM12 colon = test system: KM12 colon
LOX IMVI melanoma = test system: LOX IMVI melanoma
NCI-H23 lung = test system: NCI-H23 lung
SF-539 CNS = test system: SF-539 CNS
U251 CNS = test system: U251 CNS
DMS 114 small cell lung = test system: DMS 114 small cell lung
HT29 colon = test system: HT29 colon
HCT-15 colon = test system: HCT-15 colon
CCRF-CEM leukemia = test system: CCRF-CEM leukemia
SK-MEL-28 melanoma = test system: SK-MEL-28 melanoma
MALME-3M melanoma = test system: MALME-3M melanoma
SK-OV-3 ovarian = test system: SK-OV-3 ovarian
MOLT-4 leukemia = test system: MOLT-4 leukemia
SNB-75 CNS = test system: SNB-75 CNS
A549 NSCLC = test system: A549 NSCLC
OVCAR-4 ovarian = test system: OVCAR-4 ovarian
UACC-257 melanoma = test system: UACC-257 melanoma
RPMI-8226 leukemia = test system: RPMI-8226 leukemia
A498 renal = test system: A498 renal
HOP-62 NSCLC = test system: HOP-62 NSCLC
TK-10 renal = test system: TK-10 renal
SR leukemia = test system: SR leukemia
ACHN renal = test system: ACHN renal
NCI-H522 lung = test system: NCI-H522 lung
SK-MEL-5 melanoma = test system: SK-MEL-5 melanoma
COLO 205 colon = test system: COLO 205 colon
OVCAR-3 ovarian = test system: OVCAR-3 ovarian

## CN(C)C(=S)/N=c1\ssc(=Nc2ccccc2)n1C
UO-31 renal
  TGI: > 100 µM
K-562 leukemia
  TGI: > 100 µM
SNB-78 CNS
  TGI: > 100 µM
HCT-116 colon
  TGI: > 100 µM
RXF 393 renal
  TGI: > 100 µM
786-0 renal
  TGI: > 100 µM
SW-620 colon
  TGI: > 100 µM
HOP-18 NSCLC
  TGI: > 100 µM
M14 melanoma
  TGI: > 100 µM
HL-60(TB) leukemia
  TGI: > 100 µM
HOP-92 NSCLC
  TGI: > 100 µM
LXFL 529 NSCLC
  TGI: > 100 µM
IGROV1 ovarian
  TGI: > 100 µM
HCC-2998 colon
  TGI: > 100 µM
M19-MEL melanoma
  TGI: > 100 µM
RXF-631 renal
  TGI: > 100 µM
SF-295 CNS
  TGI: > 100 µM
KM20L2 colon
  TGI: > 100 µM
OVCAR-5 ovarian
  TGI: > 100 µM
UACC-62 melanoma
  TGI: > 100 µM
SF-268 CNS
  TGI: > 100 µM
DMS 273 small cell lung
  TGI: > 100 µM
OVCAR-8 ovarian
  TGI: > 100 µM
SN12C renal
  TGI: > 100 µM
SK-MEL-2 melanoma
  TGI: > 100 µM
NCI-H460 lung
  TGI: > 100 µM
SNB-19 CNS
  TGI: > 100 µM
DLD-1 colon
  TGI: > 100 µM
NCI-H226 lung
  TGI: > 100 µM
CAKI-1 renal
  TGI: > 100 µM
EKVX NSCLC
  TGI: > 100 µM
KM12 colon
  TGI: > 100 µM
LOX IMVI melanoma
  TGI: > 100 µM
NCI-H23 lung
  TGI: > 100 µM
SF-539 CNS
  TGI: > 100 µM
U251 CNS
  TGI: > 100 µM
DMS 114 small cell lung
  TGI: > 100 µM
HT29 colon
  TGI: > 100 µM
HCT-15 colon
  TGI: > 100 µM
CCRF-CEM leukemia
  TGI: > 100 µM
SK-MEL-28 melanoma
  TGI: > 100 µM
MALME-3M melanoma
  TGI: > 100 µM
SK-OV-3 ovarian
  TGI: > 100 µM
MOLT-4 leukemia
  TGI: > 100 µM
SNB-75 CNS
  TGI: 44.7 µM
A549 NSCLC
  TGI: > 100 µM
OVCAR-4 ovarian
  TGI: > 100 µM
UACC-257 melanoma
  TGI: > 100 µM
RPMI-8226 leukemia
  TGI: > 100 µM
A498 renal
  TGI: > 100 µM
HOP-62 NSCLC
  TGI: > 100 µM
TK-10 renal
  TGI: > 100 µM
SR leukemia
  TGI: > 100 µM
ACHN renal
  TGI: > 100 µM

## O=C1C2=C(C(c3ccccc3)=C1c1ccccc1)c1ccccc1C1(c3ccccc3)C2=C(O)C(c2ccccc2)=C1c1ccccc1 (stereo unspecified)
UO-31 renal
  TGI: > 100 µM
SNB-78 CNS
  TGI: > 100 µM
HCT-116 colon
  TGI: > 100 µM
RXF 393 renal
  TGI: > 100 µM
786-0 renal
  TGI: > 100 µM
SW-620 colon
  TGI: > 100 µM
HOP-18 NSCLC
  TGI: > 100 µM
M14 melanoma
  TGI: > 100 µM
HL-60(TB) leukemia
  TGI: > 100 µM
HOP-92 NSCLC
  TGI: > 100 µM
LXFL 529 NSCLC
  TGI: > 100 µM
NCI-H522 lung
  TGI: > 100 µM
IGROV1 ovarian
  TGI: > 100 µM
HCC-2998 colon
  TGI: > 100 µM
M19-MEL melanoma
  TGI: > 100 µM
RXF-631 renal
  TGI: > 100 µM
SF-295 CNS
  TGI: > 100 µM
KM20L2 colon
  TGI: > 100 µM
OVCAR-5 ovarian
  TGI: > 100 µM
UACC-62 melanoma
  TGI: > 100 µM
SF-268 CNS
  TGI: > 100 µM
DMS 273 small cell lung
  TGI: > 100 µM
OVCAR-8 ovarian
  TGI: > 100 µM
SN12C renal
  TGI: > 100 µM
SK-MEL-2 melanoma
  TGI: > 100 µM
NCI-H460 lung
  TGI: > 100 µM
DLD-1 colon
  TGI: > 100 µM
NCI-H226 lung
  TGI: > 100 µM
CAKI-1 renal
  TGI: > 100 µM
EKVX NSCLC
  TGI: > 100 µM
KM12 colon
  TGI: > 100 µM
LOX IMVI melanoma
  TGI: > 100 µM
NCI-H23 lung
  TGI: > 100 µM
SF-539 CNS
  TGI: > 100 µM
U251 CNS
  TGI: > 100 µM
DMS 114 small cell lung
  TGI: > 100 µM
HT29 colon
  TGI: > 100 µM
HCT-15 colon
  TGI: > 100 µM
SK-MEL-28 melanoma
  TGI: > 100 µM
SK-MEL-5 melanoma
  TGI: > 100 µM
MALME-3M melanoma
  TGI: > 100 µM
SK-OV-3 ovarian
  TGI: > 100 µM
MOLT-4 leukemia
  TGI: > 100 µM
SNB-75 CNS
  TGI: > 100 µM
A549 NSCLC
  TGI: > 100 µM
COLO 205 colon
  TGI: > 100 µM
OVCAR-4 ovarian
  TGI: > 100 µM
UACC-257 melanoma
  TGI: > 100 µM
OVCAR-3 ovarian
  TGI: > 100 µM
RPMI-8226 leukemia
  TGI: > 100 µM
A498 renal
  TGI: > 100 µM
HOP-62 NSCLC
  TGI: > 100 µM
TK-10 renal
  TGI: > 100 µM
SR leukemia
  TGI: > 100 µM
ACHN renal
  TGI: > 100 µM

## Nc1nc2c3c(ncn3CC(O)CO2)n1 (stereo unspecified)
UO-31 renal
  TGI: > 100 µM
K-562 leukemia
  TGI: > 100 µM
SNB-78 CNS
  TGI: > 100 µM
HCT-116 colon
  TGI: > 100 µM
RXF 393 renal
  TGI: > 100 µM
786-0 renal
  TGI: > 100 µM
SW-620 colon
  TGI: > 100 µM
HOP-18 NSCLC
  TGI: > 100 µM
M14 melanoma
  TGI: > 100 µM
HL-60(TB) leukemia
  TGI: > 100 µM
HOP-92 NSCLC
  TGI: > 100 µM
LXFL 529 NSCLC
  TGI: > 100 µM
NCI-H522 lung
  TGI: > 100 µM
IGROV1 ovarian
  TGI: > 100 µM
HCC-2998 colon
  TGI: > 100 µM
M19-MEL melanoma
  TGI: 19.4 µM
RXF-631 renal
  TGI: > 100 µM
SF-295 CNS
  TGI: > 100 µM
KM20L2 colon
  TGI: > 100 µM
OVCAR-5 ovarian
  TGI: > 100 µM
UACC-62 melanoma
  TGI: > 100 µM
SF-268 CNS
  TGI: > 100 µM
DMS 273 small cell lung
  TGI: > 100 µM
OVCAR-8 ovarian
  TGI: > 100 µM
SN12C renal
  TGI: > 100 µM
SK-MEL-2 melanoma
  TGI: > 100 µM
NCI-H460 lung
  TGI: > 100 µM
SNB-19 CNS
  TGI: > 100 µM
DLD-1 colon
  TGI: > 100 µM
NCI-H226 lung
  TGI: > 100 µM
CAKI-1 renal
  TGI: > 100 µM
KM12 colon
  TGI: > 100 µM
LOX IMVI melanoma
  TGI: > 100 µM
NCI-H23 lung
  TGI: > 100 µM
SF-539 CNS
  TGI: > 100 µM
U251 CNS
  TGI: > 100 µM
DMS 114 small cell lung
  TGI: > 100 µM
HT29 colon
  TGI: 28.6 µM
HCT-15 colon
  TGI: > 100 µM
CCRF-CEM leukemia
  TGI: > 100 µM
SK-MEL-28 melanoma
  TGI: > 100 µM
SK-MEL-5 melanoma
  TGI: > 100 µM
MALME-3M melanoma
  TGI: > 100 µM
SK-OV-3 ovarian
  TGI: > 100 µM
MOLT-4 leukemia
  TGI: > 100 µM
SNB-75 CNS
  TGI: 29 µM
A549 NSCLC
  TGI: > 100 µM
COLO 205 colon
  TGI: > 100 µM
OVCAR-4 ovarian
  TGI: > 100 µM
UACC-257 melanoma
  TGI: > 100 µM
OVCAR-3 ovarian
  TGI: > 100 µM
RPMI-8226 leukemia
  TGI: > 100 µM
A498 renal
  TGI: > 100 µM
HOP-62 NSCLC
  TGI: > 100 µM
TK-10 renal
  TGI: > 100 µM
SR leukemia
  TGI: > 100 µM
ACHN renal
  TGI: > 100 µM

Reference: PubChem BioAssay (NCI)
